Like-named read-outs stand apart in the source and are kept apart here.
Assays:
in vitro [1] = conditions: mouse, brain homogenate
TRIM24-MET-r cells = assay: 3-day dose-response assay, TRIM24-MET-r cells; type: cell-based; conditions: Homo sapiens
in vitro [2] = conditions: mouse, plasma
[3] = In vitro protein binding assay, culture media; type: in vitro ADME; conditions: read-out: unbound drug fraction, Culture Media, AVG
TRIM24-MET-i PDOX = conditions: vs vehicle
Method: All treatments started 18 days after transplantation. Radiotherapy was administered at 0.5 Gy per day, delivering 10 Gy total.
Each line represents one mouse. The ends of lines indicate the onset of neurological symptoms and thereby the endpoints. Treatment started on day 13.

TRIM24-MET-i cells = assay: 3-day dose-response assay, TRIM24-MET-i cells; type: cell-based; conditions: Homo sapiens

In the case of `COc1cc2nccc(Oc3ccc(NC(=O)C4(C(=O)Nc5ccc(F)cc5)CC4)cc3)c2cc1OC` [Cabozantinib], the fraction unbound (in vitro [1]) is reported as 0.0025, the EC50 (TRIM24-MET-r cells; 72 h, read-out: EC50 Total) is reported as 369 nM and the EC90 (TRIM24-MET-r cells; 72 h, read-out: EC90 Total) is reported as 44900 nM. For the same compound, the EC50 (TRIM24-MET-r cells; read-out: EC50 Unbound) was 12.2 nM, the EC90 (TRIM24-MET-r cells; read-out: EC90 Unbound) was 1480 nM and the fraction unbound (in vitro [2]) was 0.0017. The fraction unbound [3] was 0.033, the “increase of median survival” value (TRIM24-MET-i PDOX) was 15.5 days and the EC50 (TRIM24-MET-i cells; 72 h, read-out: EC50 Total) was 30.3 nM. The EC90 (TRIM24-MET-i cells; 72 h, read-out: EC90 Total) was 556 nM, the EC50 (TRIM24-MET-i cells; read-out: EC50 Unbound) was 1 nM and the EC90 (TRIM24-MET-i cells; read-out: EC90 Unbound) was 18.3 nM.

From article PMC11157767 (Molecular Cancer, 2024)
